{"source": "patent US20220370322A1", "about": "“UV BLOCKING COMPOSITION COMPRISING RED ALGAE-DERIVED FLORIDOSIDE AND AMINE GROUP-CONTAINING COMPOUND” (ATHENA CO., LTD., priority 2019, published 2022)", "key": {"[1]": {"tested_on": "skin", "experiment": "Primary patch test for human body application (skin irritation, ICDRG criteria)", "type": "in vivo", "design": "key to Mean score of the skin reaction: mean of ICDRG-graded reactions via skin reaction formula", "settings": "31 subjects", "experimental": "A primary patch test for human body application was performed on the sample.\nSubjects of the test were determined for skin irritation by a dermatologist a total of 4 times (the date of a patch, the date of removal of the patch, and 24 hours and 120 hours after removal of the patch) during the test period.\nThe skin patch test was performed using the Van der Bend chamber (Van der Bend, Brielle, the Netherlands). For each of 31 subjects, the sample was applied between the shoulder blade and the waist line on the basis of the spin on the back by using the Van der Bend chamber.\nA site of the test was washed with distilled water and dried, and then the sample was dissolved in 10% distilled water. Thereafter, 35 μl was dropped in the Van der Bend chamber, which was then put and fixed on the site of the test. The sample was patched on the skin for 48 hours, and after the removal of the patch, the site of the test was marked with a marking pen, and the site of the test was observed after 30 minutes, 24 hours, and 120 hours.\nWith respect to the skin reaction, the degrees of irritation were classified according to the evaluation criteria of the International Contact Dermatitis Research Group (ICDRG) as shown in Table 2 below.\nThe mean score of the skin reaction was calculated by the skin reaction calculation formula, and then the presence or absence of irritation was determined according to the decision table of the skin patch test."}, "[2]": {"tested_on": "Raw 264.7 cells", "experiment": "Cytotoxicity test (Cell Counting Kit-8)", "type": "cell-based", "settings": "for Viability (%): 24 hours, CCK-8; for Absorbance AVERAGE: absorbance at 450 nm, mean of three; for Absorbance: single replicates, measured at 450 nm", "experimental": "A cytotoxicity test was performed on the sample, which had been identified to be floridoside, by using the Cell Counting Kit-8 kit (DOJINDO, CK04-05).\nRaw 264.7 cells were cultured at 1×10^4 cells/well in a DMEM medium containing 10% FBS in a 96-well plate at 37° C. in 5% CO2 incubator for 24 hours, and then treated with a drug. After the cells were cultured at 37° C. in the 5% CO2 incubator for 24 hours, CCK-8 solution was added, followed by incubation at 37° C. for 2 hours, and then the absorbance was measured at 450 nm."}}, "note": "Where “and” joins values, the source holds several entries; their conditions need not be identical. Equal entries are not always repeated."}
{"smiles": "OCC(CO)O[C@H]1O[C@H](CO)[C@H](O)[C@H](O)[C@H]1O", "note": "[Floridoside, 2-O-α-D-galactopyranosylglycerol]", "values": [{"measurement": "Determination (skin patch test)", "setting": "[1]; decision table of the skin patch test", "result": "No irritation"}, {"measurement": "Mean score of the skin reaction", "setting": "[1]; skin reaction calculation formula", "result": 0.00}, {"measurement": "Degree of reaction + (first line), number of subjects", "setting": "[1]; After 30 minutes", "result": 0}, {"measurement": "Degree of reaction + (second line), number of subjects", "setting": "[1]; After 30 minutes", "result": 0}, {"measurement": "Degree of reaction +++, number of subjects", "setting": "[1]; After 30 minutes", "result": 0}, {"measurement": "Degree of reaction ++, number of subjects", "setting": "[1]; After 30 minutes", "result": 0}, {"measurement": "Degree of reaction + (first line), number of subjects", "setting": "[1]; After 24 hours", "result": 0}, {"measurement": "Degree of reaction + (second line), number of subjects", "setting": "[1]; After 24 hours", "result": 0}, {"measurement": "Degree of reaction +++, number of subjects", "setting": "[1]; After 24 hours", "result": 0}, {"measurement": "Degree of reaction ++, number of subjects", "setting": "[1]; After 24 hours", "result": 0}, {"measurement": "Degree of reaction + (first line), number of subjects", "setting": "[1]; After 120 hours", "result": 0}, {"measurement": "Degree of reaction + (second line), number of subjects", "setting": "[1]; After 120 hours", "result": 0}, {"measurement": "Degree of reaction +++, number of subjects", "setting": "[1]; After 120 hours", "result": 0}, {"measurement": "Degree of reaction ++, number of subjects", "setting": "[1]; After 120 hours", "result": 0}, {"measurement": "Viability (%)", "setting": "[2]; 1 ppm, Raw 264.7 cells", "result": 83, "unit": "%"}, {"measurement": "Absorbance AVERAGE", "setting": "[2]; 1 ppm", "result": 2.594}, {"measurement": "Absorbance", "setting": "[2]; 1 ppm", "result": "2.73 and 2.59 and 2.47"}, {"measurement": "Viability (%)", "setting": "[2]; 10 ppm, Raw 264.7 cells", "result": 88, "unit": "%"}, {"measurement": "Absorbance AVERAGE", "setting": "[2]; 10 ppm", "result": 2.746}, {"measurement": "Absorbance", "setting": "[2]; 10 ppm", "result": "2.69 and 2.73 and 2.81"}, {"measurement": "Viability (%)", "setting": "[2]; 100 ppm, Raw 264.7 cells", "result": 88, "unit": "%"}, {"measurement": "Absorbance AVERAGE", "setting": "[2]; 100 ppm", "result": 2.759}, {"measurement": "Absorbance", "setting": "[2]; 100 ppm", "result": "2.68 and 2.79 and 2.81"}, {"measurement": "Viability (%)", "setting": "[2]; 500 ppm, Raw 264.7 cells", "result": 89, "unit": "%"}, {"measurement": "Absorbance AVERAGE", "setting": "[2]; 500 ppm", "result": 2.790}, {"measurement": "Absorbance", "setting": "[2]; 500 ppm", "result": "2.72 and 2.8 and 2.85"}, {"measurement": "Viability (%)", "setting": "[2]; 1000 ppm, Raw 264.7 cells", "result": 89, "unit": "%"}, {"measurement": "Absorbance AVERAGE", "setting": "[2]; 1000 ppm", "result": 2.781}, {"measurement": "Absorbance", "setting": "[2]; 1000 ppm", "result": "2.75 and 2.77 and 2.82"}, {"measurement": "Cell protective effect", "setting": "[2]; Raw 264.7 cells, 1-1000 ppm, conclusion in words", "result": "excellent cell protective effect"}]}
